Source: ChEMBL document CHEMBL1212937, “Effect of synthetic peptides belonging to E2 envelope protein of GB virus C on human immunodeficiency virus type 1 infection” (J Med Chem, 2010)
Peptide text beside a SMILES is read from it.

Experiments:
[1] = system: Human immunodeficiency virus 1; experiment: Antiviral activity against R5 tropic HIV1 HXB2 infected in human PBMC cells assessed as concentration at which p24 antigen produced after 7 days by ELISA; type: functional
[2] = system: Human immunodeficiency virus 1; experiment: Antiviral activity against R5X4 tropic HIV1 69/7 infected in human TZM-bl cells assessed as inhibition of virus-induced cytopathic effect; type: functional, organism-based; details: for IC50: Human immunodeficiency virus 1, 69/7, TZM-bl
[3] = system: Human immunodeficiency virus 1; experiment: Antiviral activity against R5 tropic HIV1 HXB2 infected in human TZM-bl cells assessed as inhibition of virus-induced cytopathic effect; type: functional, organism-based; details: for IC50: Human immunodeficiency virus 1, HXB2, TZM-bl
[4] = (§1) Inhibition of HIV1 gp41-induced cell-cell fusion between viral envolop expressing human HeLa cells to CD4 receptor expressing TZM-bl cells; type: cell-based, Human immunodeficiency virus 1
[5] = system: HeLa; experiment: as §1; type: cell-based; details: Human immunodeficiency virus 1
[6] = system: Human immunodeficiency virus 1; experiment: Antiviral activity against R5 tropic HIV1 BAL infected in human PBMC cells assessed as concentration at which p24 antigen produced after 7 days by ELISA; type: functional
[7] = system: Human immunodeficiency virus 1; experiment: Antiviral activity against R5 tropic HIV1 BAL infected in human TZM-bl cells assessed as inhibition of virus-induced cytopathic effect; type: functional, organism-based; details: for IC50: Human immunodeficiency virus 1, BAL
[8] = system: Human immunodeficiency virus 1; experiment: Inhibition of HIV1 gp41 fusion peptide at compound to fusion peptide ratio of 5 by fluorimetry
[9] = Inhibition of HIV1 gp41 fusion by surface plasmon resonance; set-up: species or system Human immunodeficiency virus 1
[10] = Inhibition of HIV1 gp41 fusion by isothermal titration; set-up: species or system Human immunodeficiency virus 1

IC50 [2]	IC50 [3]	IC50 [4]	IC50 [7]	inhibition [8]	Kd [9]	Kd [10]	IC50 [5]	Compound	Activity [1]	inhibition [2]	inhibition [3]	inhibition [5]	Activity [6]	inhibition [7]
20.1 µM	58.6 µM	331 µM	140 µM					CC[C@H](C)[C@H](NC(=O)[C@H](CS)NC(=O)[C@@H](NC(=O)[C@H](C)NC(=O)[C@H](CS)NC(=O)[C@@H]1CCCN1C(=O)[C@@H](NC(=O)CNC(=O)[C@H](Cc1c[nH]c2ccccc12)NC(=O)[C@H](CCC(=O)O)NC(=O)[C@H](CO)NC(=O)[C@H](CC(C)C)NC(=O)[C@H](CCC(=O)O)NC(=O)[C@@H](N)C(C)C)C(C)C)[C@@H](C)O)C(=O)N[C@@H](CC(C)C)C(=O)N[C@@H](CC(=O)O)C(=O)N[C@@H](CCCNC(=N)N)C(=O)N[C@@H](CCCNC(=N)N)C(=O)O (H-VELSEWGVPCATCILDRR-OH)	7.8 µM	Dose-dependent effect	Dose-dependent effect	Dose-dependent effect	7.8 µM	Dose-dependent effect
43.7 µM	48.8 µM	141 µM	506 µM	59%	58.6 µM	63.6 µM		H-SDRDTVVELSEWGVPCAT-OH	31.2 µM	Dose-dependent effect	Dose-dependent effect	Dose-dependent effect	62.5 µM	Dose-dependent effect
60.8 µM	37.5 µM	687 µM	295 µM					H-LQEVDAGNFIPPPRWLLL-OH	7.8 µM	Dose-dependent effect	Dose-dependent effect	Dose-dependent effect	15.6 µM	Dose-dependent effect
71.4 µM	46 µM	370 µM	194 µM					CC[C@H](C)[C@H](NC(=O)[C@H](C)NC(=O)[C@H](CCC(N)=O)NC(=O)[C@@H](CS)NC(=O)[C@H](Cc1ccccc1)NC(=O)[C@H](C)NC(=O)[C@@H]1CCCN1C(=O)[C@@H](N)CC(C)C)C(=O)NCC(=O)N[C@@H](Cc1c[nH]c2ccccc12)C(=O)NCC(=O)N[C@@H](CC(=O)O)C(=O)N1CCC[C@H]1C(=O)N[C@H](C(=O)N[C@H](C(=O)N[C@@H](Cc1cnc[nH]1)C(=O)N[C@@H](Cc1c[nH]c2ccccc12)C(=O)N[C@@H](CO)C(=O)O)[C@@H](C)O)[C@@H](C)CC	15.6 µM	Dose-dependent effect	Dose-dependent effect	Dose-dependent effect	15.6 µM	Dose-dependent effect
24.1 µM	39.9 µM	429 µM	463 µM					CC[C@H](C)[C@H](NC(=O)[C@H](CS)NC(=O)[C@@H](NC(=O)[C@H](C)NC(=O)[C@H](CS)NC(=O)[C@@H]1CCCN1C(=O)[C@@H](NC(=O)CNC(=O)[C@H](Cc1c[nH]c2ccccc12)NC(=O)[C@H](CCC(=O)O)NC(=O)[C@H](CO)NC(=O)[C@H](CC(C)C)NC(=O)[C@H](CCC(=O)O)NC(=O)[C@@H](NC(=O)[C@@H](NC(=O)[C@@H](NC(=O)[C@@H](N)CC(=O)O)[C@@H](C)O)C(C)C)C(C)C)C(C)C)[C@@H](C)O)C(=O)N[C@@H](CC(C)C)C(=O)O (H-DTVVELSEWGVPCATCIL-OH)	7.8 µM	Dose-dependent effect	Dose-dependent effect	Dose-dependent effect	31.2 µM	Dose-dependent effect
		538 µM		46%	22.4 µM	39.6 µM		H-LVRRRSELMGRRNPVCPG-OH				Dose-dependent effect		
119 µM	237 µM		411 µM					H-SWFASTGGRDSKIDVWSL-OH	62.5 µM	Dose-dependent effect	Dose-dependent effect		7.8 µM	Dose-dependent effect
				17.9%	17.6 µM	20 µM		H-GRPDGFIHVQGHLQEVDA-OH						
							304 µM	H-HGQNRWPLSCPQYVYGSV-OH				Dose-dependent effect		
111 µM	70.1 µM	348 µM	126 µM					H-FCQAIGWGDPITHWSHGQ-OH	7.8 µM	Dose-dependent effect	Dose-dependent effect	Dose-dependent effect	15.6 µM	Dose-dependent effect
	0.175 µM		0.136 µM					C[C@@H]1[C@H](O)[C@@H](C)/C=C/C=C/C=C/C=C/C=C/C=C/C=C/[C@H](O[C@@H]2O[C@H](C)[C@@H](O)[C@H](N)[C@@H]2O)C[C@@H]2O[C@](O)(C[C@@H](O)C[C@@H](O)[C@H](O)CC[C@@H](O)C[C@@H](O)CC(=O)O[C@H]1C)C[C@H](O)[C@H]2C(=O)O [AMPHOTERICIN B]						
		530 µM		56.3%				CC(C)C[C@H](NC(=O)[C@H](CC(=O)O)NC(=O)[C@H](CCCCN)NC(=O)[C@@H](NC(=O)[C@H](CC(C)C)NC(=O)[C@H](CCCCN)NC(=O)[C@@H]1CCCN1C(=O)CNC(=O)[C@H](C)NC(=O)CNC(=O)[C@H](CS)NC(=O)[C@H](CCCNC(=N)N)NC(=O)[C@H](Cc1cnc[nH]1)NC(=O)[C@H](Cc1ccccc1)NC(=O)[C@@H]1CCCN1C(=O)[C@H](Cc1ccccc1)NC(=O)[C@@H](N)CCCNC(=N)N)[C@H](C)O)C(=O)N[C@@H](CCC(=O)O)C(=O)O				Dose-dependent effect		
209 µM	162 µM	440 µM	484 µM	52.9%	25.2 µM	33.3 µM		CC(C)C[C@H](NC(=O)[C@H](CC(C)C)NC(=O)[C@@H](NC(=O)[C@@H](NC(=O)[C@H](CC(N)=O)NC(=O)CNC(=O)[C@H](CCCNC(=N)N)NC(=O)[C@H](CC(=O)O)NC(=O)[C@H](Cc1c[nH]c2ccccc12)NC(=O)[C@@H](NC(=O)[C@H](CCCCN)NC(=O)[C@H](CCC(=O)O)NC(=O)CNC(=O)[C@@H](N)[C@@H](C)O)C(C)C)C(C)C)[C@@H](C)O)C(=O)N[C@@H](CS)C(=O)N[C@@H](CC(=O)O)C(=O)N[C@@H](CS)C(=O)N1CCC[C@H]1C(=O)O (H-TGEKVWDRGNVTLLCDCP-OH)	31.2 µM	Dose-dependent effect	Dose-dependent effect	Dose-dependent effect	62.5 µM	Dose-dependent effect
		509 µM						H-PITHWSHGQNRWPLSCPQ-OH				Dose-dependent effect		

Compound	IC50 [2]	IC50 [3]	IC50 [4]	IC50 [7]	inhibition [8]	Kd [9]	Kd [10]	IC50 [5]	Activity [1]	inhibition [2]	inhibition [3]	inhibition [5]	Activity [6]	inhibition [7]
H-WVNQLAVLGLPAVDAAVA-OH			333 µM	94.7 µM					7.8 µM	Dose-dependent effect	Dose-dependent effect	Dose-dependent effect	15.6 µM	Dose-dependent effect
